Activity calls are given as the source filed them. The calls are words filed in the database; no cut-off is given here.
Tested on: Cladosporium cucumerinum
Assay: Antifungal activity against Cladosporium cucumerinum assessed as drug level causing inhibition of fungal growth after 2 days by TLC based bioautography
Type: functional

Row | SMILES | Activity | INH [µg]
1 | COc1cc(OC)c2c(c1)cc(OC)c1c(=O)cc(C)oc12 | inactive | 
2 | C/C=C/C(=O)c1c(OC)cc2cc(OC)cc(OC)c2c1OC [GUIERANONE A] |  | 1
3 | COc1cc(OC)c2c3c(c(OC)cc2c1)C(=O)CC(C)O3 (stereo not drawn) | inactive | 

— ChEMBL document CHEMBL1150688, “Guieranone A, a naphthyl butenone from the leaves of Guiera senegalensis with antifungal activity” (2003)
